Experimental data as given in patent publication US11912710B2 (UPPTHERA, INC., priority 2021, dated 2024).

Experiments:
Format in all cases: cell-based
NCI-H526 cell line = experiment: Cell viability assay for H526 cell line; conditions: Homo sapiens, NCI-H526, 120 h; H526 cells, 5 days, EZ-Cytox, 3000 nM to 0.46 nM
Method: 3. Cell Viability Assay for H526 Cell Line
(1) Culture of NCI-H526 Cell Line
(2) Treatment of Compounds of the Present Invention and Method of Cell Viability Assay
After treating the compound to each well to make the total volume of 200 μL, it was cultured in a CO2 incubator (Thermo Fisher Science, Cat. No. 4111) for 5 days.
The absorbance of the completely cultured sample was measured by setting the wavelength of a plate reader (BMG Labtech, CLARIOstar Plus) to […], and was measured after shaking for 3 minutes in a plate reader before measurement.
In Table 3, Activity represents IC50 value of each Exemplary Compound treatment group to H526 cell line (A: <30 nM, B: <50 nM, C: <100 nM, D: <200 nM, E: <400 nM).

MRC-5 cell line = experiment: Cell viability assay (cytotoxicity) for MRC-5 cell line; conditions: Homo sapiens, MRC5, 120 h; MRC-5 normal cell line, 5 days, EZ-Cytox, 10000 nM to 1.52 nM; read-out: Activity: IC50 value to MRC-5 cell line (Exemplary Compounds)
Method: 4. Cell Viability Assay for MRC-5 Cell Line
(1) Culture of MRC-5 Cell Line
Passage of cultured cells was maintained within P15.
(2) Treatment of Compounds of the Present Invention
Then, it was cultured in 37° C.
(3) Cytotoxicity Experiment
CO2 incubator for 4 hours.
Cell Viability Assay for MRC-5 cell line

PLK1 = target: T1, PLK1 (Homo sapiens, UniProt P53350); experiment: Luciferase assay for PLK1 in HeLa LgBit (Plk1-HiBit KI) cell line; conditions: 300 nM compound, luminescence after 9 hours, read-out: Activity: ratio of the luminescense value of compound treatment group to DMSO treatment group
T1 construct: endogenous in cells; host or cells: HeLa LgBit (Plk1-HiBit KI): HeLa cells stably expressing LgBit, with HiBit knocked into the endogenous Plk1 locus by CRISPR/Cas9
Method: 2. Luciferase Assay for PLK1
(1) Preparation and Culture of HeLa LgBit (Plk1-HiBit KI) Cell Line
A HeLa cell line in which the LgBit vector was transfected and expressed stably was prepared. Then, after constructing gRNA and donor to express the HiBit amino acid sequence behind the C-terminal of the Plk1 gene, which was inherent in the cell, it was inserted into the cell together with a vector capable of expressing CRISPR/Cas9. Only the cells in which the insertion was completed and knock-in had progressed were selected, sub-cultured and used.
(2) Treatment of Compounds of the Present Invention and Method of Luciferase Assay
In the case of HeLa LgBit (Plk1-HiBit KI), the compounds were treated after being released after thymidine block, and the process was as follows. Thymidine (Sigma-Aldrich Cat. No. T9250-5G) was completely dissolved in DW and used in the experiment. For thymidine block, the products were treated with 2 mM of thymidine and then incubated for 24 hours. For release and chemical treatment, the medium was suctioned and washed with 1×PBS. TrypLE™ was added and incubated in 37° C. CO2 incubator for 5 min. Cells neutralized by adding complete media were counted through a counter. For each well of a 96-well culture plate (SPL), 3.3×10^4 cells and a total medium volume of 150 μL were seeded and incubated in a CO2 incubator.
Each cell line was incubated in a CO2 incubator for 18 hours, and Endurazine was added to each well to make up 4% of the total volume. After adding the compound of the present invention in a 96-well white plate (SPL) to a concentration of 300 nM, the wavelength of the plate reader (BMG Labtech, CLARIOstar Plus) was set to […], and then the luminescence was tracked in real time.
In Table 2, Activity represents the ratio of the luminescense value of each Exemplary Compound treatment group to DMSO treatment group (+++: <0.3, ++<0.6, +<0.7).

T1 sequence (P53350 whole entry): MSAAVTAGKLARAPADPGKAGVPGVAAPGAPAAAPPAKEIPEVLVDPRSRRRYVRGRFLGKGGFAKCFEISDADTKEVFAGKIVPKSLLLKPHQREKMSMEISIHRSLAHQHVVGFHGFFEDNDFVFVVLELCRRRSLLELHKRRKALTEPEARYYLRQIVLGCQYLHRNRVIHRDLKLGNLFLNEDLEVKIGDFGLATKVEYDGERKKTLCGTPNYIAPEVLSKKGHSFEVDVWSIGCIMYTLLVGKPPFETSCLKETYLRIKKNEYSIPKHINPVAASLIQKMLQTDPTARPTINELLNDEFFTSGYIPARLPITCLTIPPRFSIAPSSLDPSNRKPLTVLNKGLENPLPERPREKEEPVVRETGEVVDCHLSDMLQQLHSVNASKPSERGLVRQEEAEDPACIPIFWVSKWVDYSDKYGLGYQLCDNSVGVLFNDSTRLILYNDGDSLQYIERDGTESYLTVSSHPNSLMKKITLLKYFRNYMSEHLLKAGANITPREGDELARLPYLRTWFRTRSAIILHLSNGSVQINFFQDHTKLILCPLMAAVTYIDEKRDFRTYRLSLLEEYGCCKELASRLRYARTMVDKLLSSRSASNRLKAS

SMILES	IC50 (NCI-H526 cell line) [µM]	IC50 (MRC-5 cell line) [µM]	remaining activity at 0.3 µM (PLK1) [%]
COc1cc(C(=O)NC2CCN(C(=O)CCCOc3ccc(C4CCC(=O)NC4=O)cc3)CC2)c(F)cc1Nc1ncc2c(n1)N(C1CCCC1)CC(F)(F)C(=O)N2C (stereo not drawn) [Compound 3, 4-((9-cyclopentyl-7,7-difluoro-5-methyl-6-oxo-6,7,8,9-tetrahydro-5H-pyrimido[4,5-b][1,4]diazepin-2-yl)amino)-N-(1-(4-(4-(2,6-dioxopiperidin-3-yl)phenoxy)butanoyl)piperidin-4-yl)-2-fluoro-5-methoxybenzamide]	< 0.1	> 10	< 60
COc1cc(C(=O)NC2CCN(C(=O)CCCOc3cccc(C4CCC(=O)NC4=O)c3)CC2)ccc1Nc1ncc2c(n1)N(C1CCCC1)CC(F)(F)C(=O)N2C (stereo not drawn) [Compound 4, 4-((9-cyclopentyl-7,7-difluoro-5-methyl-6-oxo-6,7,8,9-tetrahydro-5H-pyrimido[4,5-b][1,4]diazepin-2-yl)amino)-N-(1-(4-(3-(2,6-dioxopiperidin-3-yl)phenoxy)butanoyl)piperidin-4-yl)-3-methoxybenzamide]	< 0.05	> 10	< 30
COc1cc(C(=O)NC2CCN(C(=O)CCN3CCN(c4ccc(C5CCC(=O)NC5=O)cc4)CC3)CC2)ccc1Nc1ncc2c(n1)N(C1CCCC1)CC(F)(F)C(=O)N2C (stereo not drawn) [Compound 5, 4-((9-cyclopentyl-7,7-difluoro-5-methyl-6-oxo-6,7,8,9-tetrahydro-5H-pyrimido[4,5-b][1,4]diazepin-2-yl)amino)-N-(1-(3-(4-(4-(2,6-dioxopiperidin-3-yl)phenyl)piperazin-1-yl)propanoyl)piperidin-4-yl)-3-methoxybenzamide]	< 0.03	> 10	< 60
COc1cc(C(=O)NC2CCN(C(=O)CCN3CCN(c4cccc(C5CCC(=O)NC5=O)c4)CC3)CC2)ccc1Nc1ncc2c(n1)N(C1CCCC1)CC(F)(F)C(=O)N2C (stereo not drawn) [Compound 6, 4-((9-cyclopentyl-7,7-difluoro-5-methyl-6-oxo-6,7,8,9-tetrahydro-5H-pyrimido[4,5-b][1,4]diazepin-2-yl)amino)-N-(1-(3-(4-(3-(2,6-dioxopiperidin-3-yl)phenyl)piperazin-1-yl)propanoyl)piperidin-4-yl)-3-methoxybenzamide]	< 0.03	> 10	< 60
COc1cc(C(=O)NC2CCC(N(C)CC3CCN(c4ccc(C5CCC(=O)NC5=O)cc4F)CC3)CC2)ccc1Nc1ncc2c(n1)N(C1CCCC1)CC(F)(F)C(=O)N2C (stereo not drawn) [Compound 7, 4-((9-cyclopentyl-7,7-difluoro-5-methyl-6-oxo-6,7,8,9-tetrahydro-5H-pyrimido[4,5-b][1,4]diazepin-2-yl)amino)-N-((1r,4r)-4-(((1-(4-(2,6-dioxopiperidin-3-yl)-2-fluorophenyl)piperidin-4-yl)methyl)(methyl)amino)cyclohexyl)-3-methoxybenzamide]	< 0.03	> 10	< 30
COc1cc(C(=O)NC2CCC(CN(C)C3CCN(c4ccc(C5CCC(=O)NC5=O)cc4F)CC3)CC2)ccc1Nc1ncc2c(n1)N(C1CCCC1)CC(F)(F)C(=O)N2C (stereo not drawn) [Compound 8, 4-((9-cyclopentyl-7,7-difluoro-5-methyl-6-oxo-6,7,8,9-tetrahydro-5H-pyrimido[4,5-b][1,4]diazepin-2-yl)amino)-N-((1r,4r)-4-(((1-(4-(2,6-dioxopiperidin-3-yl)-2-fluorophenyl)piperidin-4-yl)(methyl)amino)methyl)cyclohexyl)-3-methoxybenzamide]	< 0.03	> 10	< 30
